Assay results published in ChEMBL document CHEMBL1201862, “PubChem BioAssay data set” (2004).
Activity calls are given as the source filed them.

Key:
Protein skinhead-1 = biological target: T1, Protein skinhead-1 (Caenorhabditis elegans, UniProt P34707); type: functional
T1 sequence (P34707 whole entry): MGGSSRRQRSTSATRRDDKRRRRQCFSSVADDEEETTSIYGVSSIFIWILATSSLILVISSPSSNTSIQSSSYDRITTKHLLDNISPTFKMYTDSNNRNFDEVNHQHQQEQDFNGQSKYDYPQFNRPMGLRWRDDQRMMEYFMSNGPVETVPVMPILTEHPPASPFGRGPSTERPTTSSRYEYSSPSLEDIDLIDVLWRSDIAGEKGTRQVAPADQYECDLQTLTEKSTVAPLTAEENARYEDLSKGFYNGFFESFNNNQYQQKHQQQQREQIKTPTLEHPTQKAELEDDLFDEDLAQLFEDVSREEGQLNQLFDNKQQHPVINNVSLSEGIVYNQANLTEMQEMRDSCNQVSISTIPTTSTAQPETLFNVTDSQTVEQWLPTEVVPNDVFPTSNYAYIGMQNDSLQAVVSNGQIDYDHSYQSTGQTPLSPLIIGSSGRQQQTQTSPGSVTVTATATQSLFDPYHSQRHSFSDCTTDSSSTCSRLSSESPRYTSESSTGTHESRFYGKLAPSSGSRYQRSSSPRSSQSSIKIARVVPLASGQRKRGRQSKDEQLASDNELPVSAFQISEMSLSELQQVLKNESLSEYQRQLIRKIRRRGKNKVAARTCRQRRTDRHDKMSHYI

[1] = biological target: T2, Rac GTPase-activating protein 1 (Homo sapiens, UniProt Q9H0H5); test: MgcRacGAP GTPase-activating activity inhibitors, confirmation, biochemical, ADP Hunter fluorescence, primary and confirmatory (AID 624330); type: functional
T2 sequence (Q9H0H5 whole entry): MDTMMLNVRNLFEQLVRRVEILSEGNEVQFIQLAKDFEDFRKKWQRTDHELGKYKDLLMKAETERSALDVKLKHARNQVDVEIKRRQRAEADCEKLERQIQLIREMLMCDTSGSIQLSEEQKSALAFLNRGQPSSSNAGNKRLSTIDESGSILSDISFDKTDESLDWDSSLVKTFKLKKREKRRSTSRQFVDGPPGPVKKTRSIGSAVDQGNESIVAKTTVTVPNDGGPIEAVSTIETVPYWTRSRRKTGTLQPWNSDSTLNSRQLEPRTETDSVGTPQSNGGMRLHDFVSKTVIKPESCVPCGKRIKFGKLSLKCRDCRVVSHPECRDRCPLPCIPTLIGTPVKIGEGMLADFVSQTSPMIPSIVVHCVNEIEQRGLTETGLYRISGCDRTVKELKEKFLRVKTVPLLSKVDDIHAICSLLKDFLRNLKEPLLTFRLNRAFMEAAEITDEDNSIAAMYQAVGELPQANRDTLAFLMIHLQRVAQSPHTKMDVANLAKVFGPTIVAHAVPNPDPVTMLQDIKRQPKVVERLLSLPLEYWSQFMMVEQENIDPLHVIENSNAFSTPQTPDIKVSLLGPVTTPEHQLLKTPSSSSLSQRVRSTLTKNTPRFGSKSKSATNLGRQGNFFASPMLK

[2] = growth suppression of PTEN-null colon cells, dose response, cell-based, HCT116 PTEN knockout (AID 1047); type: functional;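 note: HCT116 colon tumor cells with PTEN knocked out; cells exposed to compound for 60 hours before readout; potency for loss of cell viability measured by luminescence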
[3] = growth suppression of beta-catenin-knockout colon cells, dose response, cell-based, HCT116, human colon tumor (AID 1045); type: functional;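 note: HCT116 colon tumor cells with beta catenin knocked out; cells exposed to compound for 60 hours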
[4] = NIH-3T3 fibroblast cytotoxicity, dose response, cytotoxicity control, cell-based, fluorescence, Alamar Blue, secondary assay (AID 2327); type: functional;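 note: NIH-3T3 mouse fibroblasts cultured with fluconazole at 8 µg/mL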
[5] = C. albicans growth with fluconazole, confirmation, fluorescence, retest (AID 2467); type: functional, cell-based
INS1 = test: beta cell apoptosis inhibitors, cytokine rescue, dose response, luminescence, retest (AID 449756); type: functional, cell-based; details: Rattus norvegicus;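 note: cell death triggered by IL-1 beta plus TNF-alpha plus IFN-gamma mixture; protective hits raise ATP signal compared with cytokine alone wells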
[6] = inhibitors of clade B AD8 Env fusion, dose response, cell-based, cherry-pick (AID 652062); type: functional;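 note: luciferase signal from cell-cell fusion driven by HIV-1 clade B AD8 Env; potency is for inhibitors of fusion seen as a drop in luminescence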
[7] = biological target: T3, RNA-binding protein pos-1 (Caenorhabditis elegans, UniProt G5EF15); test: inhibitors of POS-1/mex-3 RNA binding, dose response, biochemical, fluorescence polarization (AID 1964);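 note: purified POS-1 fused to maltose binding protein made in E. coli; potency of compounds blocking POS-1 binding to fluorescent RNA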
T3 sequence (G5EF15 whole entry): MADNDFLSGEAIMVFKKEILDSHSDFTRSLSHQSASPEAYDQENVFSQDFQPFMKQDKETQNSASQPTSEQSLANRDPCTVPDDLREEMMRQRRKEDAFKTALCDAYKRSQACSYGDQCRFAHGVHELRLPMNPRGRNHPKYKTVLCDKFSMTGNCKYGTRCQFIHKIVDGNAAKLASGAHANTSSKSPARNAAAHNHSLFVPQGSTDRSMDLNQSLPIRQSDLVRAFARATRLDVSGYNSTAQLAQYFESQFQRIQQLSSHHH

[8] = biological target: T4, Zinc finger protein mex-5 (Caenorhabditis elegans, UniProt Q9XUB2); test: MEX-5/TCR-2 RNA interaction inhibitors, dose response, biochemical, C. elegans, fluorescence polarization (AID 1960)
T4 sequence (Q9XUB2 whole entry): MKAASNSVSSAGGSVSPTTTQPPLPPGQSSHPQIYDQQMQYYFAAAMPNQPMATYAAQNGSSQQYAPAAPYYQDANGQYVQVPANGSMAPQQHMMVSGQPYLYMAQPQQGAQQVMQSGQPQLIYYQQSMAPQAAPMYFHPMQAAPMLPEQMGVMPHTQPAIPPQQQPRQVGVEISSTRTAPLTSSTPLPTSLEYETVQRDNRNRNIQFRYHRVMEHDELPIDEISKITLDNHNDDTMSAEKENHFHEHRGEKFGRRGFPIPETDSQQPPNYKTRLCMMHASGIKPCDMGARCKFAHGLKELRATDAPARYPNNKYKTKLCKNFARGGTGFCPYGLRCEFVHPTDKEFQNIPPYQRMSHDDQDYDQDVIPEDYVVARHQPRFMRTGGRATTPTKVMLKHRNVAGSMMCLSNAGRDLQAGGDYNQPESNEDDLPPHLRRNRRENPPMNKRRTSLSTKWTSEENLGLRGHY

[9] = Luminescence Cell-Based Dose Response HTS to Identify Activators of Luciferase Translation or Activity in H4 […] Cells. [Related pubchem assays: 1829 (Project Summary), 1814 (Primary HTS)]; type: functional
H4 = test: Luminescence Cell-Based Dose Response HTS to Identify Activators of 5'UTR Stem-Loop Driven Prion Protein mRNA Translation in H4 Neuroglioblastoma Cells. [Related pubchem assays: 1829 (Project Summary), 1814 (Primary HTS)]; type: functional; details: Homo sapiens
Cytochrome P450 2D6 = Cytochrome P450 2D6 (Homo sapiens, UniProt P10635);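 note: CYP2D6 member of a cytochrome P450 panel assay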
Cytochrome P450 3A4 = Cytochrome P450 3A4 (Homo sapiens, UniProt P08684);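 note: CYP3A4 tested as one member of a cytochrome P450 panel screen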
[10] = Luminescence Cell-Based Dose Retest to Confirm Inhibitors of Cancer Stem Cells. [Related pubchem assays (depositor defined):AID2717, AID2721]; type: functional; details: Homo sapiens
[11] = inhibitors of intracellular T. cruzi replication, confirmation, NIH3T3 host cells, beta-gal luminescence (AID 2044); type: functional, cell-based;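 note: intracellular parasites grown in NIH/3T3 mouse fibroblasts as host cells; luminescent beta-galactosidase reporter signal from transgenic T. cruzi replicating inside host cells; inhibitors lower the luminescence signal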
[12] = cytotoxicity toward NIH3T3 fibroblasts, dose response, counter-screen, cell-based, ATP luminescence, mouse fibroblasts (AID 2010); type: functional;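 note: cells exposed to compound for about 90 hours before reading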
cells = type: functional

Sequence of Cytochrome P450 3A4 (P08684 whole entry): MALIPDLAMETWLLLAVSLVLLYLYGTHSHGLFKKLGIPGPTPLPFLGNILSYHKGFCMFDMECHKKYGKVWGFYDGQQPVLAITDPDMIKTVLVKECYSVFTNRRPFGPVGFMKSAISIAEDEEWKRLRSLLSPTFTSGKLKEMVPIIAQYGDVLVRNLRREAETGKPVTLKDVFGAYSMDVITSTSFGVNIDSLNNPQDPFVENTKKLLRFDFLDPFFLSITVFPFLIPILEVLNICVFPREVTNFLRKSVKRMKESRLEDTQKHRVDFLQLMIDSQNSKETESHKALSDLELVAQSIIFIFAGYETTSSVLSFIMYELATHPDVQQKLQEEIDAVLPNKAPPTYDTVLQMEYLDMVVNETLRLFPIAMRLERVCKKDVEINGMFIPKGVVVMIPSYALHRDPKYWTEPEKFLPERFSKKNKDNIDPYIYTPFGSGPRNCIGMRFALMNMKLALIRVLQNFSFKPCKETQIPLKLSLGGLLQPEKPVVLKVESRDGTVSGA
Sequence of Cytochrome P450 2D6 (P10635 whole entry): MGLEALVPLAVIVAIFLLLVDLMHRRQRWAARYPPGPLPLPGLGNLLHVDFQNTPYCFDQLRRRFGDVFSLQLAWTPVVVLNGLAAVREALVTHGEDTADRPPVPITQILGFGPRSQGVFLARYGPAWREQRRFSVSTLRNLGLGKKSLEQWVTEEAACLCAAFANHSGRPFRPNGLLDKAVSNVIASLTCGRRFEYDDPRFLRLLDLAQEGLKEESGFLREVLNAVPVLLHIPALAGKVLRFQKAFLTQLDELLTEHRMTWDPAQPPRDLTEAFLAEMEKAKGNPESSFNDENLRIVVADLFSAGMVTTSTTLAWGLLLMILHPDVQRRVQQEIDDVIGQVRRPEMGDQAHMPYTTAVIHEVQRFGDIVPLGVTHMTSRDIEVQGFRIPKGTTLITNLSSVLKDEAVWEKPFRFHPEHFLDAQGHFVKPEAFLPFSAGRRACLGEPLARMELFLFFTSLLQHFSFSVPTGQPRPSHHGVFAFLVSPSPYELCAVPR

## Cc1noc(C)c1S(=O)(=O)N1CCCC(C(=O)NCCc2ccc(Cl)cc2)C1 (stereo not drawn)
Protein skinhead-1
  IC50: > 100 µM (inactive)

## CC(C)c1ccc(C(=O)Nc2ccc(CN3CCOCC3)cc2)cc1
Protein skinhead-1
  IC50: 3.18 µM (active)

## Nc1ccc(C(=O)N/N=C/c2ccc(N3CCOCC3)s2)cc1
[1]
  IC50: 16.5 µM (active)

## CN1/C(=C/C=N/NC(=O)c2ccc([N+](=O)[O-])cc2)C(C)(C)c2ccccc21
[2]
  EC50: 24.3 µM (active)
[3]
  EC50: 23.2 µM (active)

## COc1ccc(NC2CCCN(C(=O)CCC3=NNC(=O)CC3)C2)cc1 (stereo not drawn)
[1]
  IC50: 126 µM (active)

## Clc1ccc(-c2cn3cc(Br)ccc3n2)cc1Cl
Protein skinhead-1
  IC50: > 100 µM (inactive)

## COc1ccccc1N1CCN(CCCOc2ccc(F)cc2)CC1
[1]
  IC50: 122 µM (active)

## O=C(c1cc(COc2cccc(C(F)(F)F)c2)on1)N1CCC(c2ccncc2)CC1
[4]
  EC50: > 150 µM (inactive)
[5]
  EC50: > 38 µM (not active)
INS1
  AC50: 5.33 µM (active)
[6]
  AC50: 6.22 µM (active)

## Cc1ccc2[nH]c(C)c(/C=C3/C(=N)N4N=C(CC(=O)N5CCOCC5)SC4=NC3=O)c2c1
[7]
  EC50: 38.3 µM (active)
[8]
  EC50: > 300 µM (inconclusive)
Protein skinhead-1
  IC50: > 100 µM (inactive)

## Cn1cc(C(=O)NCCN2CCN(c3cccc(Cl)c3)CC2)c2c3ccccc3n(C)c2c1=O
[2]
  EC50: 46.8 µM (active)
[3]
  EC50: 63 µM (active)

## O=C(NCc1cccnc1)NC1(C(F)(F)F)Oc2ccccc2O1
[2]
  EC50: 25.1 µM (active)
[3]
  EC50: 23.3 µM (active)

## COc1c(C(=O)Nc2nccs2)ccc2ccccc12
Protein skinhead-1
  IC50: 17.1 µM (active)

## Cc1ccc(C)c(NS(=O)(=O)c2ccc3c(c2)Cc2cc(S(=O)(=O)Nc4cc(C)ccc4C)ccc2-3)c1
[2]
  EC50: 9.63 µM (active)
[3]
  EC50: 11.2 µM (active)

## CN(C)C(CNC(=O)CCc1nc2cc(Cl)ccc2n(Cc2ccccc2)c1=O)c1ccccc1 (stereo not drawn)
Protein skinhead-1
  IC50: 58.1 µM (inactive)

## c1ccc(CSc2nnc(-c3c[nH]c4ccccc34)o2)cc1
[9]
  EC50: 28.7 µM (active)
H4
  EC50: 70.2 µM (active)

## COc1cc(SC)ccc1C(=O)Nc1nccs1
Protein skinhead-1
  IC50: 53.6 µM (inactive)

## O=[N+]([O-])c1ccc(COc2ccc(CN3CCCC3)cc2)cc1
Protein skinhead-1
  IC50: 3.75 µM (active)

## COc1ccc(-c2cc3ccccc3n2CC(O)CN2CCCCC2)cc1 (stereo not drawn)
[1]
  IC50: 110 µM (active)

## Cc1[nH]c2ccccc2c1/C=C/c1cc[n+](C)cc1
[4]
  EC50: 120 µM (inconclusive)
[5]
  EC50: > 38 µM (not active)
Cytochrome P450 2D6
  AC50: 17.8 µM (inconclusive)

## CC(C)C(CCNCc1ccccn1)c1ccc(Cl)cc1 (stereo not drawn)
Protein skinhead-1
  IC50: > 100 µM (inactive)

## O=C(COc1ccccc1F)N/N=C1\CCCc2ccccc21
[9]
  EC50: 24.8 µM (active)
H4
  EC50: 53.3 µM (inconclusive)

## CCCCCOC(=O)CSc1nnc(-c2ccccc2)c(O)n1
Cytochrome P450 3A4
  AC50: 22.4 µM (inconclusive)

## Cn1cccc1C(=O)N1CCC2(CCCN(C(=O)Nc3cccc(F)c3)C2)CC1
Cytochrome P450 3A4
  AC50: 10 µM (inconclusive)

## O=C(Nc1csc(Cl)c1)c1ccccc1
Protein skinhead-1
  IC50: > 100 µM (inactive)

## CCOc1cc(N2CCOCC2)c(OCC)cc1NC(=O)Cc1ccccc1OC
[2]
  EC50: 23.9 µM (active)
[3]
  EC50: 21.2 µM (active)

## O=S(=O)(Nc1nc2ccccc2s1)c1ccc(Br)s1
[4]
  EC50: > 150 µM (inactive)
[5]
  EC50: 1.94 µM (active)

## COc1ccc(-c2csc(NC(=S)NC(=O)/C=C/c3ccco3)n2)cc1OC
[2]
  EC50: 1.62 µM (active)
[3]
  EC50: 3.11 µM (active)
[10]
  AC50: 0.853 µM (active)

## O=C(Nc1cc2c3c(c1)C1CCCC1CN3CC1CCCC21)c1ccccc1 (stereo not drawn)
[4]
  EC50: > 160 µM (inactive)
[11]
  EC50: 0.78 µM (active)
[12]
  EC50: > 60 µM (not active)

## CCn1c(CC(=O)Nc2ccc(C)c(Cl)c2)nnc1SCC(=O)Nc1nc(C)cs1
[2]
  EC50: 25.4 µM (active)
[3]
  EC50: 27.2 µM (active)

## CC1=NNC(=O)C1Br (stereo not drawn)
[1]
  IC50: 55.9 µM (active)

## CCc1nc2c(OCc3ccc(C(F)(F)F)cc3)cccn2c1N(C)C(=O)c1ccncc1
Protein skinhead-1
  IC50: 4.62 µM (active)

## COc1ccc(CCNC(=O)c2c(O)c3ccccc3n(C)c2=O)cc1
[4]
  EC50: 72.2 µM (active)
[5]
  EC50: > 38 µM (not active)

## CCN(CC)c1ccc(S(=O)(=O)N2CCOCC2)cc1NC(=O)COC(=O)/C=C/c1ccc(O)c(OC)c1
[1]
  IC50: 108 µM (active)

## COC(=O)/C(=C\c1ccc([N+](=O)[O-])o1)NC(=O)c1ccccc1
[4]
  EC50: > 160 µM (inactive)
[5]
  EC50: 0.53 µM (active)

## O=C1CCC(C(=O)OCC(=O)N2N=C3/C(=C\c4ccccc4)CCCC3C2c2ccccc2)N1 (stereo not drawn)
Protein skinhead-1
  IC50: > 100 µM (inactive)

## CCCCn1c(S)nc2c(=O)n(C)c(=O)n(C)c21
[1]
  IC50: 20.9 µM (active)

## Cc1ccc(OCc2ccc(C(=O)Nc3nccs3)o2)cc1C
Protein skinhead-1
  IC50: > 100 µM (inactive)
Cytochrome P450 2D6
  AC50: 15.8 µM (inconclusive)

## CCCSc1nc(O)c2cnn(-c3ccc(C)cc3)c2n1
[2]
  EC50: 22.2 µM (active)
[3]
  EC50: 20.7 µM (active)

## Nc1ccccc1Nc1ccccc1
cells
  IC50: 1.28 µM (active)
[1]
  IC50: 36.1 µM (active)

## Cc1ccc(-n2c(=S)[nH]c3sc4c(c3c2=O)CCC4)cc1
[1]
  IC50: 85.6 µM (active)

## COc1cc(/C=N/NC(=O)C(=O)Nc2ccccn2)ccc1O
[1]
  IC50: 22.6 µM (active)

## CCn1ncc(C2=NOC(C(=O)Nc3ccc(C)cc3)C2)c1C (stereo not drawn)
[6]
  AC50: 32.8 µM (active)

## CN(C)Cc1ccccc1-c1cncnc1NCc1cccs1
Cytochrome P450 3A4
  AC50: 1.26 µM (inconclusive)
